Series [1] concerns CAR binding to CYP2B6 and CYP3A4 promoter response elements. Put plainly: Chromatin immunoprecipitation (CAR / RNA polymerase II occupancy at promoters). It is filed as cell-based, human. The method, then: FIG. 8B and FIG. 8C show the fold enrichment of CAR at CYP2B6-dNR3 and CYP2B6-PBREM sites, respectively, in the promoter region following the indicated treatment in human primary hepatocytes. […] Protein complexes were cross-linked and chromatin was immunoprecipitated by using anti-CAR antibody or control IgG. CAR occupancy at two separate CYP2B6 promoter regions (dNR3 and PBREM) was determined by performing quantitative RT-PCR assays. Fold-enrichment normalized to IgG control was plotted. Data represent the mean±SD of 3 experiments. *, p<0.01 comparing CITCO treatment to DMSO treatment.
FIG. 9A, FIG. 9B, and FIG. 9C show the fold enrichment of CAR at CYP2B6-dNR3, CYP3A4-XREM, and CYP2B6-dNR3 sites, respectively, in the promoter region following the indicated treatment in human primary hepatocytes or HepG2-hCAR1 cells, as indicated in the figures. Briefly, in FIG. 9A and FIG. […] 9C HepG2-hCAR1 stable cells were treated for […] with DMSO, 1 μM CITCO, 5 μM CINPA1, or 1 μM CITCO+5 μM CINPA1. Protein complexes were cross-linked and chromatin was immunoprecipitated by using anti-CAR antibody, anti-RNA polymerase II (RPol) antibody, or control IgG. CAR or RPol occupancy at the CYP2B6-dNR3 region and CYP3A4-XREM region was determined by performing quantitative RT-PCR assays. Fold-enrichment was normalized to IgG control. Data represent the mean±SD of 3 experiments. *, p<0.001 and #, p<0.01 comparing CITCO to DMSO samples. **, p<0.001 and ##, p<0.01 comparing CITCO+CINPA1 to CITCO samples.
ChIP was performed as described previously (Cherian, M. T., et al. (2012) J. Biol. Chem. 287, 23368-23380). Briefly, human hepatocytes in 6-well plates were maintained for 3-4 days in Williams E medium containing Primary Hepatocyte Maintenance Supplement (Life Technologies), with daily media changes. Nine wells were used for each treatment group. […] The HepG2-hCAR1 stable cells in FIG. 9 were treated with DMSO, 1 μM CITCO, 5 μM CINPA1, or 1 μM CITCO+5 μM CINPA1 for […]. In FIG. 9, the hepatocytes from donor 7 were treated with DMSO, 0.1 μM CITCO, 1 μM CINPA1, or 0.1 μM CITCO+1 μM CINPA1 for 45 min. Proteins were cross-linked with 1% formaldehyde for 10 min. Cell extracts were digested for 10 min with 50 units of micrococcal nuclease (New England Biolabs) at 37° C. and further sonicated to yield sheared DNA fragments having an average length of 200-1000 base pairs. The sonicated samples were pelleted by centrifugation, and the supernatant was diluted 3- to 5-fold with ChIP dilution buffer (0.01% SDS, 1.1% Triton X-100, 1.2 mM EDTA, 16.7 mM Tris-HCl, pH 8.1, 167 mM NaCl, and protease inhibitor cocktail). […] Quantitative RT-PCR assays were performed to determine the change in CAR occupancy at various sites of CAR binding. […]

The target of series [2] is T1, hCAR1 interaction with coregulators (SRC-1, TIF2, SMRTα, mNCoR) (Homo sapiens, UniProt Q14994).
T1 construct: expressed in transfected cells; host or cells: HEK293T
T1 sequence (Q14994 1-348 isoform Q14994-2): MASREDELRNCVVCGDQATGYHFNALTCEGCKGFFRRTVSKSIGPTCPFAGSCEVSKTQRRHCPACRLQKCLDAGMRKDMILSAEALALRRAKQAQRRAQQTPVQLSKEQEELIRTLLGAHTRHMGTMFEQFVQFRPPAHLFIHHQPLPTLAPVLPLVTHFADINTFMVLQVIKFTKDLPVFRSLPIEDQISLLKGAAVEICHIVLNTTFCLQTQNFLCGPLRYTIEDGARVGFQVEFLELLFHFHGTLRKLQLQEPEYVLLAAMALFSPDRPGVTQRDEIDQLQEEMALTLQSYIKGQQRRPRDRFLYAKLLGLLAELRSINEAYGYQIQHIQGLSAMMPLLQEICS
Put plainly: Mammalian two-hybrid assay (HEK293T cells). It counts as cell-based. The text has this:
Briefly, mammalian two-hybrid assays were set up in HEK293T cells transfected with expression plasmids encoding VP16AD-hCAR1 fusion protein, GAL4DBD-co-activator fusion proteins, and the reporter plasmid pG5luc. […] Fold interaction represents pG5luc reporter activity normalized to the Renilla luciferase internal control. Data presented are the mean±SD of at least three independent transfections. *, p<0.001 compared to DMSO treatment within the indicated co-activator set. […] Briefly, mammalian two-hybrid assays were set up in HEK293T cells transfected with expression plasmids encoding VP16AD-hCAR1 fusion protein, GAL4DBD-co-repressor fusion proteins, and the reporter plasmid pG51luc. […] Fold interaction represents pG5luc reporter activity normalized to the Renilla luciferase internal control. Data presented are the mean±SD of at least three independent transfections. *, p<0.001 compared to DMSO treatment within the indicated co-repressor set.
The pACT-hCAR1, pBIND-coregulator peptide and pG5-luc were cotransfected into HEK293T cells. Renilla luciferase is constitutively expressed from the pBIND plasmids. The Dual-Glo Luciferase Assay (Promega) was used to measure pG5-luc luciferase activity. The relative luciferase activity was determined by normalizing firefly luciferase activity with Renilla luciferase activity.

Setting [3] is: human hepatocytes, 0.1 μM CITCO + 1 μM CINPA1, 45 min.

For `CCOC(=O)Nc1ccc2c(c1)N(C(=O)CN(CC)CC)c1ccccc1CC2` [CINPA1], in series [1] (setting [3]), the “CITCO-mediated recruitment of CAR and RNA polymerase II to XREM (dNR3) of the CYP2B6 promoter” value is recorded as “effectively reduced”; the “CITCO-mediated recruitment of CAR and RNA polymerase II to XREM of the CYP3A4 promoter” value is “also reduced”. Moreover, the “CAR recruitment to XREM (dNR3) of the CYP2B6 gene” value in series [1] (human primary hepatocytes, 3 donors, overnight, 1 μM CITCO or 5 μM CINPA1) is listed as “prevents CAR recruitment”. The “corepressor (SMRTα, mNCoR) interaction with CAR-LBD” value in series [2] (5 μM CINPA1, 24 h) is listed as “increased interaction”. Besides, the “coactivator (SRC-1, TIF-2) binding to CAR-LBD” value in series [2] (5 μM CINPA1, presence or absence of CITCO, 24 h) was “reduced SRC-1 and TIF-2 coactivator binding”.
